This note sets out measurements from patent US20230031385A1, “STORAGE MEDIA FOR PRESERVATION OF CORNEAL TISSUE” (National Health Research Institutes, priority 2021, published 2023).

Data set [1] relates to bovine corneal endothelium cells. The experiment in a line: TUNEL assay of AAPH induced apoptosis. The settings on record: ferulic acid 50 μM and 100 μM, AAPH 25 mM (FIG. 4). The class given is cell-based. As to the method:
Terminal deoxynucleotidyl transferase (TdT) end-labeling (TUNEL) method (DeadEnd™ Fluorometric TUNEL System, Promega, Madison, USA) was used for apoptosis analysis according to the manufacturer's instructions (FIG. 4). Briefly, bovine cornea endothelium cells were seeded on LabTek® chamber slides at a density of 1×10^4 cells/well for 24 hours, treated with 50 μM ferulic acid for 3 hours, and then reacted with 25 mM AAPH (2,2′-azobis(2-amidinopropane dihydrochloride) for 6 hours. Slides were immersed in 4% formaldehyde for fixation, cells were permeabilized with Triton® X-100. Then equilibration buffer, nucleotide mix and rTdT enzyme were added in for apoptosis cells labeling. Finally, counterstaining the nucleus with propidium iodide, and observed by fluorescence microscopy. The green fluorescence spots in FIG. 4 represents the apoptotic cells (fluorescein-12-dUTP) with a red background (propidium iodide).

The test system of data set [2] is human corneal endothelium cells (HCECs). The experiment in a line: Annexin V-FITC / propidium iodide flow cytometry apoptosis assay. The class given is cell-based. The settings on record: 50 μM and 100 μM, 24 hours (FIG. 3). As to the method: Annexin V staining is a common method for detecting apoptotic cells. The human corneal endothelium cells (HCECs) were assessed for apoptosis using flow cytometry staining with annexin-V conjugated with fluorescein isothiocyanate and propidium iodide (FIG. 3). HCECs were cultured in DMEM/F12 containing 50 μM and 100 μM ferulic acid. Briefly, HCECs were grown to confluence and incubated for 24 hours in 24-well plates using the same conditions as in the previous sets of experiments. After centrifugation and washing in cold PBS, HCECs for annexin V-FITC staining were resuspended in binding buffer (10 mM HEPES, 140 mM sodium chloride, 5 mM potassium chloride, 1 mM magnesium dichloride, 2.5 mM calcium dichloride, pH 7.4) at a concentration of 10^6 cells/ml. Five hundred microliters containing 5×10^5 cells was transferred to a culture tube, and […] of FITC-conjugated annexin V was added. Positive controls were provided for both apoptotic and necrotic (10% ethanol) cell death. For simultaneous scoring of the differential cellular response, aliquots of 10^4 cells each were immediately processed for fluorescence-activated cell sorting (FACS) on a FACS Calibur flow cytometer (Becton-Dickinson). Excitation parameters were set at λEx=488 nm, and fluorescence emission was detected at […]=518 nm for annexin V-FITC.
On the technique in general: Flow cytometry measures light scatter and fluorescence of single cells or particles in a stream.

Regarding `COc1cc(/C=C/C(=O)O)ccc1O` [ferulic acid], the “protection against AAPH induced damage (apoptosis, TUNEL)” value in data set [1] was “prevented and/or antagonized AAPH (25 mM) induced damage”. For the same compound, the “cytotoxicity (apoptosis, annexin-V/PI)” value in data set [2] is on record as “no cytotoxic effect”.
